Consider 1 compound from patent US20230225990A1, “DIMETHYL SULFONE FOR TREATMENT OF CHRONICALLY HEAT STRESSED POULTRY” (Evonik Operations GmbH, priority 2020, published 2023).

The test system of this assay is male broilers subjected to chronic cyclic heat stress. Nature of the assay: Rectal temperature and panting frequency during heat stress. The assay is classed as in vivo, broiler chickens (Ross 308). As for the experimental part: The finisher period started at d-21, and the chronic cyclic heat stress (HS) protocol was applied from d-24 until d-39. Starting from d-24, the temperature was increased from 22° C. to 34° C. for 6 hours per day (from 9:00 to 15:00) with relative air humidity (RH) between 52 and 58%. From 8:00 to 9:00, the temperature was increased from 22° C. to 34° C., and from 15:00 to 16:00, the temperature was decreased from 34° C. to 22° C. The rest of the day the temperature was 22° C. The room was equipped with heaters with thermostats, and air circulators to enable the desired temperature and RH to be maintained, providing sufficient ventilation and air conditions. RH was adjusted with manual spraying of water on stable walls, periodically. The temperature and the RH were recorded at 10-min intervals with a dry bulb thermo-hygrometer (Escort RH iLog, Escort Verification Technologies Inc., Buchanan, United States).
Rectal temperature and panting frequency (video analyses) (for 2 selected birds per pen on 3 days: d-24, d-31 and d-38, measured after 4 h of heat stress that day)

The mark [1] stands for this setting: 0.1% DMS in diet (T2), Total, all days.
[2] abbreviates: 0.1% DMS in diet (T2), d-24, during heat stress.
[3] abbreviates: 0.1% DMS in diet (T2), d-31, during heat stress.
[4] abbreviates: 0.1% DMS in diet (T2), d-38, during heat stress.
[5] abbreviates: 0.2% DMS in diet (T3), Total, all days.
[6] abbreviates: 0.2% DMS in diet (T3), d-24, during heat stress.
[7] abbreviates: 0.2% DMS in diet (T3), d-31, during heat stress.
[8] abbreviates: 0.2% DMS in diet (T3), d-38, during heat stress.

Marks after values point to notes of the source that are not given here.

Turning to `CS(C)(=O)=O` [DMS, dimethyl sulfone], the Panting runs as follows: under setting [1], 141 #/min; under setting [2], 119^ab #/min; under setting [3], 158 #/min; under setting [4], 147 #/min; under setting [5], 137 #/min; under setting [6], 112^b #/min. Further, the Panting by setting is: under setting [7], 143 #/min; under setting [8], 152 #/min. Moreover, the Rectal temperature reads like this: under setting [1], 42.6^ab ° C; under setting [2], 42.3 °C; under setting [3], 42.9 °C; under setting [4], 42.7 °C; under setting [5], 42.5^b ° C; under setting [6], 42.3 °C. Besides, the Rectal temperature is, setting by setting: under setting [7], 42.6 °C; under setting [8], 42.6 °C.
